# Experimental data from ChEMBL document CHEMBL1137525, “Additional level of information about complex interaction between non-nucleoside inhibitor and HIV-1 reverse transcriptase using biosensor-based thermodynamic analysis” (Bioorg Med Chem, 2007).
# What was measured:
# [1] = target: T1, Human immunodeficiency virus type 1 reverse transcriptase (Human immunodeficiency virus 1, UniProt Q72547, K103N); assay: Binding affinity to HIV1 reverse transcriptase K103N mutant at 35 degC
# [2] = target: T2, Human immunodeficiency virus type 1 reverse transcriptase (Human immunodeficiency virus 1, UniProt Q72547, Y181C); assay: Binding affinity to HIV1 reverse transcriptase Y181C mutant at 5 degC
# [3] = target: T1, Human immunodeficiency virus type 1 reverse transcriptase; assay: Binding affinity to HIV1 reverse transcriptase K103N mutant at 5 degC
# [4] = target: T1, Human immunodeficiency virus type 1 reverse transcriptase; assay: Binding affinity to HIV1 reverse transcriptase K103N mutant at 25 degC
# [5] = target: T1, Human immunodeficiency virus type 1 reverse transcriptase; assay: Binding affinity to HIV1 reverse transcriptase K103N mutant at 15 degC
# [6] = target: T2, Human immunodeficiency virus type 1 reverse transcriptase; assay: Binding affinity to HIV1 reverse transcriptase Y181C mutant at 15 degC
# [7] = target: T2, Human immunodeficiency virus type 1 reverse transcriptase; assay: Binding affinity to HIV1 reverse transcriptase Y181C mutant at 25 degC
# [8] = target: T2, Human immunodeficiency virus type 1 reverse transcriptase; assay: Binding affinity to HIV1 reverse transcriptase Y181C mutant at 35 degC
smiles,measurement,setting,value
CCC(=O)c1ccc(F)c([C@@H]2C[C@@H]2NC(=O)Nc2ccc(C#N)cn2)c1O,Kd,[1],3.49 nM
same,Kd,[2],0.627 nM
same,Kd,[3],0.596 nM
same,Kd,[4],4.91 nM
same,Kd,[5],0.997 nM
same,Kd,[6],0.79 nM
same,Kd,[7],1.5 nM
same,Kd,[8],2.89 nM
